The subject of assay [1] is barnyard grass. Put plainly: Test Example 4: herbicidal effect by soil treatment (Table 19, symbol H). Conditions: 320 g/ha. The assay is classed as in vivo, barnyard grass (Echinochloa crus-galli). The method, boiled down: (§1)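 Three weeks of greenhouse growth at 25° C. to 30° C. followed a uniform surface spray of water-diluted emulsion at a predetermined herbicide amount. Seeds had been sown beforehand under about 1.5 cm of sterilized diluvial soil. Grading followed criteria set out in an earlier test.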

The test system of assay [2] is late watergrass. In words: Test Example 2: herbicidal activity, application during weed generation under submerged conditions (Table 17, symbol A). The assay is classed as in vivo, late watergrass (Echinochloa oryzicola). Conditions: AAH 320 g/ha; application during weed generation, submerged conditions. A digest of the protocol: (§2)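 In this pot test, flooded alluvial soil (water depth 4 cm) holds all three species sown as a mixture. Once seedlings have one to two leaves, the compound's emulsion, thinned with water to the intended dose, is poured on the water; grading follows after three weeks on the earlier criteria.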

Assay [3] has as its system chickweed. In words: Test Example 4: herbicidal effect by soil treatment (Table 19, symbol P). The assay is classed as in vivo, common chickweed (Stellaria media). Conditions: 320 g/ha. A digest of the protocol: as §1
The subject of assay [4] is barnyard grass. In words: Test Example 3: herbicidal effect by foliage application, Wagner pot (Table 18, symbol H). It is filed as in vivo, barnyard grass (Echinochloa crus-galli). Conditions: 320 g/ha. A digest of the protocol: (§3)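 Plants were sown in alluvial soil held under 0.1–0.5 cm standing water and grown 14 days in a greenhouse at 25–30 °C. An emulsifiable formulation, water-diluted to the set dose, was then sprayed onto the foliage, and effects were scored three weeks later using previously defined criteria.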

Assay [5] relates to Italian ryegrass. Put plainly: Test Example 4: herbicidal effect by soil treatment (Table 19, symbol K). The assay is classed as in vivo, Italian ryegrass (Lolium multiflorum). Conditions: 320 g/ha. The method, boiled down: as §1
Assay [6] deals with Japanese bulrush. Put plainly: Test Example 2: herbicidal activity, application during weed generation under submerged conditions (Table 17, symbol B). It is filed as in vivo, Japanese bulrush (Schoenoplectus juncoides). Conditions: AAH 320 g/ha; application during weed generation, submerged conditions. The method, boiled down:
as §2

Assay [7] concerns redroot pigweed. In words: Test Example 4: herbicidal effect by soil treatment (Table 19, symbol N). It is filed as in vivo, redroot pigweed (Amaranthus retroflexus). As to conditions: 320 g/ha. The method, boiled down: as §1
Assay [8] relates to lambsquarters. Put plainly: Test Example 4: herbicidal effect by soil treatment (Table 19, symbol O). It is filed as in vivo, lambsquarters (Chenopodium album). Conditions: 320 g/ha. The method, boiled down: as §1
Assay [9] relates to green foxtail. Put plainly: Test Example 5: herbicidal effect by foliage application, plastic box (Table 20, symbol G). Conditions: foliage application, 320 g/ha, 3 weeks after application. The assay is classed as in vivo, green foxtail (Setaria viridis). A digest of the protocol:
(§4)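 Plants sown in sterilized diluvial soil and grown 14 days in a greenhouse at 25° C to 30° C, then sprayed on the foliage with the compound's emulsion diluted in water to a predetermined herbicide amount. Injury to weeds and crops scored three weeks after application on a visual rating scale.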

For assay [10], the system named is velvetleaf. In words: Test Example 5: herbicidal effect by foliage application, plastic box (Table 20, symbol M). The assay is classed as in vivo, velvetleaf (Abutilon theophrasti). Conditions: foliage application, 320 g/ha, 3 weeks after application. A digest of the protocol: as §4
Assay [11] concerns Italian ryegrass. Put plainly: Test Example 5: herbicidal effect by foliage application, plastic box (Table 20, symbol K). Conditions: foliage application, 320 g/ha, 3 weeks after application. It is filed as in vivo, Italian ryegrass (Lolium multiflorum). The method, boiled down: as §4
Assay [12] has as its system wild oat. In words: Test Example 5: herbicidal effect by foliage application, plastic box (Table 20, symbol I). It is filed as in vivo, wild oat (Avena fatua). Conditions: foliage application, 320 g/ha, 3 weeks after application. The method, boiled down:
as §4

For assay [13], the system named is wild oat. In words: Test Example 4: herbicidal effect by soil treatment (Table 19, symbol I). It is filed as in vivo, wild oat (Avena fatua). As to conditions: 320 g/ha. A digest of the protocol: as §1
For assay [14], the system named is persian speedwell. Put plainly: Test Example 5: herbicidal effect by foliage application, plastic box (Table 20, symbol R). The assay is classed as in vivo, Persian speedwell (Veronica persica). As to conditions: foliage application, 320 g/ha, 3 weeks after application. The method, boiled down: as §4
The test system of assay [15] is green foxtail. In words: Test Example 4: herbicidal effect by soil treatment (Table 19, symbol G). It is filed as in vivo, green foxtail (Setaria viridis). As to conditions: 320 g/ha. The method, boiled down:
as §1

Assay [16] relates to rice flat sedge. Put plainly: Test Example 3: herbicidal effect by foliage application, Wagner pot (Table 18, symbol E). The assay is classed as in vivo, rice flat sedge (Cyperus iria). Conditions: 320 g/ha. The method, boiled down:
as §3

For assay [17], the system named is velvetleaf. Put plainly: Test Example 4: herbicidal effect by soil treatment (Table 19, symbol M). As to conditions: 320 g/ha. The assay is classed as in vivo, velvetleaf (Abutilon theophrasti). A digest of the protocol:
as §1

The test system of assay [18] is southern crabgrass. Put plainly: Test Example 4: herbicidal effect by soil treatment (Table 19, symbol F). The assay is classed as in vivo, southern crabgrass (Digitaria ciliaris). As to conditions: 320 g/ha. The method, boiled down: as §1
Assay [19] has as its system windgrass. In words: Test Example 5: herbicidal effect by foliage application, plastic box (Table 20, symbol L). It is filed as in vivo, windgrass (Apera spica-venti). As to conditions: foliage application, 320 g/ha, 3 weeks after application. The method, boiled down:
as §4

Assay [20] deals with blackgrass. Put plainly: Test Example 5: herbicidal effect by foliage application, plastic box (Table 20, symbol J). It is filed as in vivo, blackgrass (Alopecurus myosuroides). Conditions: foliage application, 320 g/ha, 3 weeks after application. A digest of the protocol: as §4

As for `CCCCOc1ccc(-c2sc3ccc(F)cc3c2-c2c(OC(=O)CCC)c(C)nn(C)c2=O)cc1` [2-037], the “herbicidal effect rating, H: barnyard grass” value (“herbicidal effect rating, H” for short) in assay [1] was 0 (Herbicidal rate of 5% or less (almost no effect)). Besides, the “herbicidal effect rating, A: late watergrass” value in assay [2] is 0 (Herbicidal rate of 5% or less (almost no effect)). In addition, in assay [3], the “herbicidal effect rating, P: chickweed” value was 1 (Herbicidal rate of 5% or more and less than 20%). Further, in [4], the “herbicidal effect on H (barnyard grass), rating 0-5” value (“herbicidal effect on H” below) is 4 (Herbicidal rate of 70% or more and less than 90%). For the same compound, the “herbicidal effect rating, K: Italian ryegrass” value (“herbicidal effect rating, K” below) in [5] is 0 (Herbicidal rate of 5% or less (almost no effect)). In assay [6], the “herbicidal effect rating, B: Japanese bulrush” value (shortened to “herbicidal effect rating, B”) was 1 (Herbicidal rate of 5% or more and less than 20%). Further, in assay [7], the “herbicidal effect rating, N: redroot pigweed” value (“herbicidal effect rating, N” for short) is reported as 5 (Herbicidal rate of 90% or more (almost completely withered)). The “herbicidal effect rating, O: lambsquarters” value (from here on “herbicidal effect rating, O”) in [8] was 2 (Herbicidal rate of 20% or more and less than 40%). Also, the “effect on green foxtail (G)” value in assay [9] is 3 (Herbicidal rate of 40% or more and less than 70%). In addition, in assay [10], the “effect on velvetleaf (M)” value is 5 (Herbicidal rate of 90% or more (almost completely withered)). Moreover, the “effect on Italian ryegrass (K)” value in [11] is 0 (Herbicidal rate of 5% or less (almost no effect)). Also, the “effect on wild oat (I)” value in assay [12] is reported as 0 (Herbicidal rate of 5% or less (almost no effect)). Also, the “herbicidal effect rating, I: wild oat” value in [13] is on record as 0 (Herbicidal rate of 5% or less (almost no effect)). In assay [14], the “effect on persian speedwell (R)” value is 5 (Herbicidal rate of 90% or more (almost completely withered)). The “herbicidal effect rating, G: green foxtail” value (from here on “herbicidal effect rating, G”) in [15] is 2 (Herbicidal rate of 20% or more and less than 40%). Also, in assay [16], the “herbicidal effect on E (rice flat sedge), rating 0-5” value (from here on “herbicidal effect on E”) was 4 (Herbicidal rate of 70% or more and less than 90%). For the same compound, the “herbicidal effect rating, M: velvetleaf” value in [17] is 4 (Herbicidal rate of 70% or more and less than 90%). The “herbicidal effect rating, F: southern crabgrass” value (shortened to “herbicidal effect rating, F”) in assay [18] was 2 (Herbicidal rate of 20% or more and less than 40%). In addition, the “effect on windgrass (L)” value in assay [19] is listed as 0 (Herbicidal rate of 5% or less (almost no effect)). Further, the “effect on blackgrass (J)” value in assay [20] was 0 (Herbicidal rate of 5% or less (almost no effect)).

As for `CCCCCOc1ccc(-c2sc3ccc(F)cc3c2-c2c(OC(=O)CCC)c(C)nn(C)c2=O)cc1` [2-038], the “herbicidal effect rating, H” value in assay [1] was 0 (Herbicidal rate of 5% or less (almost no effect)). The “herbicidal effect rating, A: late watergrass” value in assay [2] was 2 (Herbicidal rate of 20% or more and less than 40%). Moreover, the “herbicidal effect rating, P: chickweed” value in assay [3] was 1 (Herbicidal rate of 5% or more and less than 20%). Besides, the “herbicidal effect on H” value in assay [4] was 4 (Herbicidal rate of 70% or more and less than 90%). Further, the “herbicidal effect rating, K” value in [5] was 0 (Herbicidal rate of 5% or less (almost no effect)). The “herbicidal effect rating, B” value in assay [6] is recorded as 0 (Herbicidal rate of 5% or less (almost no effect)). Also, the “herbicidal effect rating, N” value in assay [7] is 3 (Herbicidal rate of 40% or more and less than 70%). Besides, the “herbicidal effect rating, O” value in assay [8] is 1 (Herbicidal rate of 5% or more and less than 20%). In assay [9], the “effect on green foxtail (G)” value is 1 (Herbicidal rate of 5% or more and less than 20%). In assay [10], the “effect on velvetleaf (M)” value is 4 (Herbicidal rate of 70% or more and less than 90%). Moreover, the “effect on Italian ryegrass (K)” value in assay [11] was 0 (Herbicidal rate of 5% or less (almost no effect)). The “effect on wild oat (I)” value in [12] was 0 (Herbicidal rate of 5% or less (almost no effect)). For the same compound, the “herbicidal effect rating, I: wild oat” value in assay [13] was 0 (Herbicidal rate of 5% or less (almost no effect)). For the same compound, the “effect on persian speedwell (R)” value in assay [14] is on record as 5 (Herbicidal rate of 90% or more (almost completely withered)). Also, in assay [15], the “herbicidal effect rating, G” value was 0 (Herbicidal rate of 5% or less (almost no effect)). Further, the “herbicidal effect on E” value in [16] is 4 (Herbicidal rate of 70% or more and less than 90%). For the same compound, the “herbicidal effect rating, M: velvetleaf” value in assay [17] was 0 (Herbicidal rate of 5% or less (almost no effect)). The “herbicidal effect rating, F” value in [18] is 0 (Herbicidal rate of 5% or less (almost no effect)). Besides, the “effect on windgrass (L)” value in assay [19] is 0 (Herbicidal rate of 5% or less (almost no effect)). The “effect on blackgrass (J)” value in assay [20] is listed as 0 (Herbicidal rate of 5% or less (almost no effect)).

With `Cc1nn(C)c(=O)c(-c2c(-c3ccc(OC4CCCC4)cc3)sc3ccc(F)cc23)c1O` [2-039], the “herbicidal effect rating, H” value in [1] is listed as 0 (Herbicidal rate of 5% or less (almost no effect)). Besides, in [2], the “herbicidal effect rating, A: late watergrass” value was 0 (Herbicidal rate of 5% or less (almost no effect)). The “herbicidal effect rating, P: chickweed” value in [3] is 3 (Herbicidal rate of 40% or more and less than 70%). Further, in assay [4], the “herbicidal effect on H” value was 5 (Herbicidal rate of 90% or more (almost completely withered)). Moreover, the “herbicidal effect rating, K” value in assay [5] is 0 (Herbicidal rate of 5% or less (almost no effect)). For the same compound, the “herbicidal effect rating, B” value in assay [6] was 0 (Herbicidal rate of 5% or less (almost no effect)). The “herbicidal effect rating, N” value in assay [7] was 3 (Herbicidal rate of 40% or more and less than 70%). Besides, in [8], the “herbicidal effect rating, O” value is on record as 0 (Herbicidal rate of 5% or less (almost no effect)). The “effect on green foxtail (G)” value in assay [9] was 5 (Herbicidal rate of 90% or more (almost completely withered)). Also, the “effect on velvetleaf (M)” value in [10] is 3 (Herbicidal rate of 40% or more and less than 70%). For the same compound, the “effect on Italian ryegrass (K)” value in assay [11] was 1 (Herbicidal rate of 5% or more and less than 20%). Also, in assay [12], the “effect on wild oat (I)” value is 4 (Herbicidal rate of 70% or more and less than 90%). Moreover, in assay [13], the “herbicidal effect rating, I: wild oat” value is 0 (Herbicidal rate of 5% or less (almost no effect)). Also, in [14], the “effect on persian speedwell (R)” value is reported as 5 (Herbicidal rate of 90% or more (almost completely withered)). Also, the “herbicidal effect rating, G” value in assay [15] is 0 (Herbicidal rate of 5% or less (almost no effect)). For the same compound, the “herbicidal effect on E” value in assay [16] was 3 (Herbicidal rate of 40% or more and less than 70%). In addition, in assay [17], the “herbicidal effect rating, M: velvetleaf” value is reported as 0 (Herbicidal rate of 5% or less (almost no effect)). In assay [18], the “herbicidal effect rating, F” value was 0 (Herbicidal rate of 5% or less (almost no effect)). For the same compound, the “effect on windgrass (L)” value in assay [19] is 5 (Herbicidal rate of 90% or more (almost completely withered)). Further, the “effect on blackgrass (J)” value in assay [20] is 1 (Herbicidal rate of 5% or more and less than 20%).

The values are drawn from patent US20230085307A1, “PYRIDAZINONE COMPOUND AND HERBICIDE” (NISSAN CHEMICAL CORPORATION, priority 2019, published 2023).
